Assay results from the supplement of paper PMC10307832.

Each cell line was assayed with CC(C)(C)c1cc(NC(=O)Nc2ccc(-c3cn4c(n3)sc3cc(OCCN5CCOCC5)ccc34)cc2)no1 [Quizartinib] + Nc1ncn([C@H]2C[C@H](O)[C@@H](CO)O2)c(=O)n1 [Decitabine] (partner 2 µM) (assay: relative viability (nuclei count vs DMSO), 5 days (fraction); higher = more cells survive). Conditions: first compound 0.001 µM.
Summary of the method: (§1)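 Lung cancer cell lines were seeded in 1536-well plates and dosed by pin tool the next day, with either a single drug or a fixed anchor-drug dose combined with five library-drug doses (not always all listed) spaced in √10 steps. Five days later, one step fixed the cells and stained their nuclei (final 0.05% Triton X-100, 1% formaldehyde, 1 ug/ml Hoechst), and nuclei were counted on 4× images. Relative viability is the nuclei count in treated wells divided by the count in vehicle wells, and each value is the median of duplicate plates.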

Cell Line | relative viability
NCI-H3122 | 0.382
A-427 | 0.517
LOU-NH91 | 0.746
NCI-H596 | 1.03
NCI-H1666 | 0.649
NCI-H23 | 0.267
NCI-H838 | 0.418
NCI-H322M | 0.685
NCI-H441 | 0.236
NCI-H727 | 0.781
SW 1573 | 0.513
201T | 0.812
HCC-44 | 0.864
NCI-H1755 | 0.59
NCI-H1650 | 0.345
COR-L23 | 0.436
NCI-H2085 | 0.521
BEN | 0.586
PC-3 [JPC-3] | 0.837
LC-2-ad | 0.718

Same assay, conditions: first compound 0.003162 µM

Cell Line | relative viability
NCI-H3122 | 0.354
A-427 | 0.529
LOU-NH91 | 0.815
NCI-H596 | 0.938
NCI-H1666 | 0.723
NCI-H23 | 0.266
NCI-H838 | 0.48
NCI-H322M | 0.653
NCI-H441 | 0.247
NCI-H727 | 0.829
SW 1573 | 0.476
201T | 0.799
HCC-44 | 0.798
NCI-H1755 | 0.676
NCI-H1650 | 0.364
ChaGo-K-1 | 0.521
COR-L23 | 0.457
NCI-H2085 | 0.536
NCI-H460 | 0.454
BEN | 0.756
PC-3 [JPC-3] | 0.843
LC-2-ad | 0.81

Same assay, conditions: first compound 0.01 µM

Cell Line | relative viability
NCI-H3122 | 0.524
A-427 | 0.582
LOU-NH91 | 0.862
NCI-H596 | 1.09
NCI-H1666 | 0.777
NCI-H23 | 0.33
NCI-H838 | 0.478
NCI-H322M | 0.681
NCI-H441 | 0.213
NCI-H727 | 0.933
SW 1573 | 0.67
201T | 0.882
HCC-44 | 0.905
NCI-H1755 | 0.71
NCI-H1650 | 0.458
ChaGo-K-1 | 0.589
COR-L23 | 0.398
NCI-H2085 | 0.58
NCI-H460 | 0.613
BEN | 0.652
PC-3 [JPC-3] | 0.841
LC-2-ad | 0.776

Same assay, conditions: first compound 0.03162 µM

Cell Line | relative viability
NCI-H3122 | 0.459
A-427 | 0.515
LOU-NH91 | 0.79
NCI-H596 | 0.993
NCI-H1666 | 0.717
NCI-H23 | 0.278
NCI-H838 | 0.466
NCI-H322M | 0.72
NCI-H441 | 0.238
NCI-H727 | 0.831
201T | 0.847
HCC-44 | 0.996
NCI-H1755 | 0.722
ChaGo-K-1 | 0.532
COR-L23 | 0.372
NCI-H2085 | 0.544
BEN | 0.649
PC-3 [JPC-3] | 0.862
LC-2-ad | 0.841

Same assay, conditions: first compound 0.1 µM

Cell Line | relative viability
NCI-H3122 | 0.417
A-427 | 0.566
LOU-NH91 | 0.89
NCI-H596 | 0.901
NCI-H1666 | 0.783
NCI-H23 | 0.317
NCI-H838 | 0.388
NCI-H322M | 0.763
NCI-H441 | 0.278
NCI-H727 | 1.29
SW 1573 | 0.625
201T | 0.87
HCC-44 | 0.855
NCI-H1755 | 0.734
NCI-H1650 | 0.393
ChaGo-K-1 | 0.596
COR-L23 | 0.467
NCI-H2085 | 0.583
NCI-H460 | 0.459
BEN | 0.728
PC-3 [JPC-3] | 0.831
LC-2-ad | 0.68

Each cell line was assayed with CC(C)(C)c1cc(NC(=O)Nc2ccc(-c3cn4c(n3)sc3cc(OCCN5CCOCC5)ccc34)cc2)no1 [Quizartinib] + CC(=O)Nc1cccc(-n2c(=O)n(C3CC3)c(=O)c3c(Nc4ccc(I)cc4F)n(C)c(=O)c(C)c32)c1 [Trametinib] (partner 0.02 µM) in the same assay as above. Conditions: first compound 0.001 µM.
Summary of the method: as §1

Cell Line | relative viability
NCI-H3122 | 0.21
A-427 | 0.517
LOU-NH91 | 0.425
NCI-H596 | 0.794
NCI-H1666 | 0.856
NCI-H23 | 0.353
NCI-H838 | 0.516
NCI-H322M | 0.482
NCI-H441 | 0.35
NCI-H727 | 0.424
SW 1573 | 0.594
201T | 0.595
HCC-44 | 0.892
NCI-H1755 | 0.744
NCI-H1650 | 0.608
COR-L23 | 0.518
NCI-H2085 | 0.62
BEN | 0.998
PC-3 [JPC-3] | 0.672
LC-2-ad | 0.809

Same assay, conditions: first compound 0.003162 µM

Cell Line | relative viability
NCI-H3122 | 0.276
A-427 | 0.691
LOU-NH91 | 0.756
NCI-H596 | 0.695
NCI-H1666 | 0.746
NCI-H23 | 0.346
NCI-H838 | 0.515
NCI-H322M | 0.536
NCI-H441 | 0.563
NCI-H727 | 0.355
SW 1573 | 0.47
201T | 0.696
HCC-44 | 1.05
NCI-H1755 | 0.851
NCI-H1650 | 0.662
ChaGo-K-1 | 0.881
COR-L23 | 0.552
NCI-H2085 | 0.528
NCI-H460 | 0.152
BEN | 1.02
PC-3 [JPC-3] | 0.754
LC-2-ad | 0.92

Same assay, conditions: first compound 0.01 µM

Cell Line | relative viability
NCI-H3122 | 0.286
A-427 | 0.675
LOU-NH91 | 0.817
NCI-H596 | 0.805
NCI-H1666 | 0.888
NCI-H23 | 0.456
NCI-H838 | 0.466
NCI-H322M | 0.617
NCI-H441 | 0.45
NCI-H727 | 0.366
SW 1573 | 0.711
201T | 0.755
HCC-44 | 1.03
NCI-H1755 | 0.856
NCI-H1650 | 0.556
ChaGo-K-1 | 0.889
COR-L23 | 0.595
NCI-H2085 | 0.567
NCI-H460 | 0.104
BEN | 1.19
PC-3 [JPC-3] | 0.705
LC-2-ad | 0.899

Same assay, conditions: first compound 0.03162 µM

Cell Line | relative viability
NCI-H3122 | 0.275
A-427 | 0.591
LOU-NH91 | 0.786
NCI-H596 | 0.77
NCI-H1666 | 0.79
NCI-H23 | 0.43
NCI-H838 | 0.514
NCI-H322M | 0.504
NCI-H441 | 0.368
NCI-H727 | 0.397
201T | 0.708
HCC-44 | 1.05
NCI-H1755 | 0.784
ChaGo-K-1 | 0.9
COR-L23 | 0.479
NCI-H2085 | 0.531
BEN | 0.925
PC-3 [JPC-3] | 0.663
LC-2-ad | 0.883

Same assay, conditions: first compound 0.1 µM

Cell Line | relative viability
NCI-H3122 | 0.219
A-427 | 0.704
LOU-NH91 | 0.826
NCI-H596 | 0.8
NCI-H1666 | 0.772
NCI-H23 | 0.312
NCI-H838 | 0.367
NCI-H322M | 0.536
NCI-H441 | 0.456
NCI-H727 | 0.429
SW 1573 | 0.655
201T | 0.742
